Measurements as given in patent US20050096370A1, “Method for inhibiting tumor angiogenesis and tumor growth” (Bizbiotech Co., Ltd., priority 2003, published 2005).

What was measured:
[1] = test system: human cancer xenografts (Hep3B, NCI-H87, SiHa, SK-N-MC, Caki-1); assay: counts of HIF-1α-positive cells and CD31-positive vessels in xenograft tumor sections; type: in vivo, nude mice; conditions: regardless of cell origin, treated 2 weeks, P<0.01
Experimental: FIG. 10 is a histogram showing HIF-1α expression detected by immunohistochemistry in human cancer xenografts derived from Hep3B hepatoma, NCI-H87 gastric carcinoma, SiHa cervical carcinoma, SK-N-MC neuroblastoma, or Caki-1 renal carcinoma cells. Male nude mice were injected subcutaneously in the flank with 5×10^6 viable tumor cells. […] After the last treatment, the mice were euthanized, the tumors removed, fixed with formalin, embedded in paraffin and processed for hinmunohistochemistry to detect HIF-1α-positive cells. […] Each bar represents the mean with lower or upper 95% confidence interval. Differences between treatment groups were compared using a Mann-Whitney U test. […]
FIG. 11 is a histogram showing vascular density detected by immunohistochemistry in human cancer xenografts derived from Hep3B hepatoma, NCI-H87 gastric carcinoma, SiHa cervical carcinoma, SK-N-MC neuroblastoma, or Caki-1 renal carcinoma cells. […]
We further quantified the numbers of HIF-1α-positive cells and CD31-positive vessels in tumor sections from vehicle- and YC-1-treated mice. […] The expression of HIF-1α and the vessel density were measured by counting the numbers of immunopositive cells and vessel profiles (identified by CD31 staining) per mm^2 under microscopic images. We analyzed ten or more different lesions per xenograft tumor.

Hep3B hepatoma = Hep3B hepatoma xenograft tumor growth in nude mice; type: in vivo; conditions: P<0.001 versus vehicle
Experimental: Male nude mice were injected subcutaneously in the flank with 5×10^6 viable Hep3B hepatoma (A), NCI-H87 gastric carcinoma (B), SiHa cervical carcinoma (C), SK-N-MC neuroblastoma (E), or Caki-I renal carcinoma (F) cells. […] Tumor size was measured over time. […] Differences between tumor sizes in the vehicle- and YC-1-treated groups for mice with Hep3B tumors were compared using ANOVA and Duncan's multiple range tests. * denotes P<0.001 relative to the control. Differences between tumor sizes in the vehicle and YC-1-treated groups for mice with other tumors (B-E) were compared using a Mann-Whitney U test. Each number beneath the error bar represents the P value of the difference relative to the control.
Male nude (BALB/cAnNC˜-nu/nu) mice were purchased from Charles River Japan Inc. (Shin-Yokohama, JAPAN). The animals were housed in a specific pathogen-free room under controlled temperature and humidity. All animal procedures were performed according to the established procedures of the Seoul National University Laboratory Animal Maintenance Manual. Eighty mice aged 7-8 weeks were injected with tumor cells for the xenograft experiments. […]
Tumors were measured every 2 or 3 days with calipers in two dimensions and the tumor volumes were calculated using the formula: Volume=axb2/2, where a is the width at the widest point of the tumor and h is the width perpendicular to a. […]

**Q.** Which results are given for `OCc1ccc(-c2nn(Cc3ccccc3)c3ccccc23)o1` [YC-1, 3-(5′-hydroxymethyl-2′-furyl)-1-benzylindazole]?
**A.** blood vessel formation (CD31 vessel profiles per mm^2) [1]: statistically significantly inhibited; expression of HIF-1α protein (immunopositive cells per mm^2) [1]: statistically significantly inhibited; tumor volume, mean, last day of experiment (Hep3B hepatoma; YC-1 30 μg/g daily i.p. for 2 weeks after tumors established (100-150 mm^3)): 126 mm^3; tumor volume, mean, last day of experiment (Hep3B hepatoma; YC-1 daily i.p. for 2 weeks, started the day after tumor cell injection): 422 mm³
